Test results published in US20100324137A1, “LAURIC ARGINATE AS A CONTACT ANTIMICROBIAL” (DIVERSEY, INC., priority 2009, published 2010).
Where “and” joins values, the source holds several entries; their conditions need not be identical. Identical values can stand only once.

Tested on: E. coli
Assay: Antimicrobial effectiveness: E. coli contacted with sample for 30 seconds, survivors calculated
Format: cell-based
Details: 30 seconds contact
Experimental: The antimicrobial effectiveness of the present invention in combination with octenyl succinic acid was tested. In this application, the test organism was E. coli, which was contacted with either the control or the stated sample for 30 seconds, and the survivors were calculated.

Compound | Percent Reduction (25 ppm active) | Survivors (25 ppm active) | Percent Reduction (50 ppm active) | Percent Reduction (75 ppm active) | Survivors (75 ppm active) | Percent Reduction (160 ppm active) | Survivors (160 ppm active) | Percent Reduction (320 ppm active) [%] | Survivors (320 ppm active) | Percent Reduction (480 ppm active) [%] | Survivors (480 ppm active)
CCCCCCCCCCCC(=O)N[C@@H](CCCN=C(N)N)C(=O)OCC [LA, ethyl lauroyl arginate] | 96.494% and 96.299% | 5,400,000 org/ml and 5,700,000 org/ml | 99.851% and 99.926% | 99.979% and 99.975% | 33,000 org/ml and 39,000 org/ml | – | – | – | – | – | –
octenyl succinic acid [OSA] | – | – | – | – | – | 84.351% and 84.805% | 24,100,000 org/ml and 23,400,000 org/ml | 99.999 | 2,000 org/ml and 2,200 org/ml | 99.999 | 1,900 org/ml and 1,920 org/ml
